According to the supplement of paper PMC11061612:

Assays:
Carboplatin = compound: C1CC(C1)(C(=O)[O-])C(=O)[O-].N.N.[Pt+2] [Carboplatin]; details: max 10 µM
How it was run: (§1)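 In 1536-well plates, cancer cell lines in 7.5 μl DMEM/F12 or RPMI with 10% FBS spent 24 hours at 37°C and 5% CO2 and were then dosed for 72 hours with final DMSO typically 0.2%. Viability was read by CellTiter-Glo 2.0 luminescence and scaled between blank-well and DMSO-well means. The single-agent IC50 was fitted from dose responses using a logistic curve in a non-linear mixed effects model, and that logistic curve had two parameters.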

AZD5363 = compound: C1CN(CCC1(C(=O)N[C@@H](CCO)C2=CC=C(C=C2)Cl)N)C3=NC=NC4=C3C=CN4 [AZD5363]; details: max 10 µM
How it was run: as §1

AZD1775 = compound: C=CCn1c(=O)c2cnc(Nc3ccc(N4CCN(C)CC4)cc3)nc2n1-c1cccc(C(C)(C)O)n1 [AZD1775]; details: max 3 µM
How it was run: as §1

Trametinib = compound: CC(=O)Nc1cccc(-n2c(=O)n(C3CC3)c(=O)c3c(Nc4ccc(I)cc4F)n(C)c(=O)c(C)c32)c1 [Trametinib]; details: max 1 µM
How it was run: as §1

Paclitaxel = compound: CC(=O)O[C@H]1C(=O)[C@@]2(C)[C@H]([C@H](OC(=O)c3ccccc3)[C@]3(O)C[C@H](OC(=O)[C@H](O)[C@@H](NC(=O)c4ccccc4)c4ccccc4)C(C)=C1C3(C)C)[C@]1(OC(C)=O)CO[C@@H]1C[C@@H]2O [Paclitaxel]; details: max 3 µM
How it was run: as §1

Palbociclib = compound: CC(=O)c1c(C)c2cnc(Nc3ccc(N4CCNCC4)cn3)nc2n(C2CCCC2)c1=O [Palbociclib]; details: max 10 µM
How it was run: as §1

AZD1390 = compound: CC(C)n1c(=O)n(C)c2cnc3cc(F)c(-c4ccc(OCCCN5CCCCC5)nc4)cc3c21 [AZD1390]; details: max 0.3 µM
How it was run: as §1

Venetoclax = compound: CC1(C)CCC(CN2CCN(c3ccc(C(=O)NS(=O)(=O)c4ccc(NCC5CCOCC5)c([N+](=O)[O-])c4)c(Oc4cnc5[nH]ccc5c4)c3)CC2)=C(c2ccc(Cl)cc2)C1 [Venetoclax]; details: max 1 µM
How it was run: as §1

Dasatinib = compound: CC1=C(C(=CC=C1)Cl)NC(=O)C2=CN=C(S2)NC3=CC(=NC(=N3)C)N4CCN(CC4)CCO [Dasatinib]; details: max 2 µM
How it was run: as §1

SG3199 = compound: CC1=CN2[C@@H](C1)C=NC3=CC(=C(C=C3C2=O)OC)OCCCCCOC4=C(C=C5C(=C4)N=C[C@@H]6CC(=CN6C5=O)C)OC [SG3199]; details: max 0.001 µM
How it was run: as §1

AZD2811 = compound: CCN(CCO)CCCOc1ccc2c(Nc3cc(CC(=O)Nc4cccc(F)c4)[nH]n3)ncnc2c1 [AZD2811]; details: max 1 µM
How it was run: as §1

SN-38 = compound: CCc1c2c(nc3ccc(O)cc13)-c1cc3c(c(=O)n1C2)COC(=O)[C@]3(O)CC [SN-38]; details: max 0.3 µM
How it was run: as §1

AZD0156 = compound: CN(C)CCCOc1ccc(-c2ccc3ncc4c(c3c2)n(C2CCOCC2)c(=O)n4C)cn1 [AZD0156]; details: max 3 µM
How it was run: as §1

AZD4320 = compound: CN(CC[C@H](CSC1=CC=CC=C1)NC2=C(C=C(C=C2)S(=O)(=O)NC(=O)C3=CC=C(C=C3)N4CCC(CC4)[C@H](C5=CC=CC=C5C6=CC=C(C=C6)Cl)O)S(=O)(=O)C(F)(F)F)CCO [AZD4320]; details: max 1 µM
How it was run: as §1

Alisertib = compound: COc1cc(Nc2ncc3c(n2)-c2ccc(Cl)cc2C(c2c(F)cccc2OC)=NC3)ccc1C(=O)O [Alisertib]; details: max 10 µM
How it was run: as §1

Etoposide = compound: COc1cc([C@@H]2c3cc4c(cc3[C@@H](O[C@@H]3O[C@@H]5CO[C@@H](C)O[C@H]5[C@H](O)[C@H]3O)[C@H]3COC(=O)[C@H]23)OCO4)cc(OC)c1O [Etoposide]; details: max 10 µM
How it was run: as §1

Gefitinib = compound: COc1cc2ncnc(Nc3ccc(F)c(Cl)c3)c2cc1OCCCN1CCOCC1 [Gefitinib]; details: max 10 µM
How it was run: as §1

Prexasertib = compound: COc1cccc(OCCCN)c1-c1cc(Nc2cnc(C#N)cn2)n[nH]1 [Prexasertib]; details: max 1 µM
How it was run: as §1

Doxorubicin = compound: COc1cccc2c1C(=O)c1c(O)c3c(c(O)c1C2=O)C[C@@](O)(C(=O)CO)C[C@@H]3O[C@H]1C[C@H](N)[C@H](O)[C@H](C)O1 [Doxorubicin]; details: max 1 µM
How it was run: as §1

AZD5153 = compound: COc1nnc2ccc(N3CCC(c4ccc(OCCN5CCN(C)C(=O)[C@H]5C)cc4)CC3)nn12 [AZD5153]; details: max 1 µM
How it was run: as §1

Lapatinib = compound: CS(=O)(=O)CCNCc1ccc(-c2ccc3ncnc(Nc4ccc(OCc5cccc(F)c5)c(Cl)c4)c3c2)o1 [Lapatinib]; details: max 10 µM
How it was run: as §1

AZD8186 = compound: C[C@@H](Nc1cc(F)cc(F)c1)c1cc(C(=O)N(C)C)cc2c(=O)cc(N3CCOCC3)oc12 [AZD8186]
How it was run: as §1

Crizotinib = compound: C[C@@H](Oc1cc(-c2cnn(C3CCNCC3)c2)cnc1N)c1c(Cl)ccc(F)c1Cl [Crizotinib]; details: max 10 µM
How it was run: as §1

Savolitinib = compound: C[C@@H](c1ccc2nccn2c1)n1nnc2ncc(-c3cnn(C)c3)nc21 [Savolitinib]; details: max 1 µM
How it was run: as §1

AZD6738 = compound: C[C@@H]1COCCN1C2=NC(=NC(=C2)C3(CC3)[S@](=N)(=O)C)C4=C5C=CNC5=NC=C4 [AZD6738]; details: max 10 µM
How it was run: as §1

AZD5991 = compound: Cc1c2c(nn1C)CSCc1cc(n(C)n1)CSc1cc(c3ccccc3c1)OCCCc1c(C(=O)O)n(C)c3c-2c(Cl)ccc13 [AZD5991]; details: max 1 µM
How it was run: as §1

AZD7648 = compound: Cc1cc2ncnn2cc1Nc1ncc2c(n1)n(C1CCOCC1)c(=O)n2C [AZD7648]; details: max 10 µM
How it was run: as §1

Taselisib = compound: Cc1nc(-c2cn3c(n2)-c2ccc(-c4cnn(C(C)(C)C(N)=O)c4)cc2OCC3)n(C(C)C)n1 [Taselisib]; details: max 10 µM
How it was run: as §1

Selumetinib = compound: Cn1cnc2c(F)c(Nc3ccc(Br)cc3Cl)c(C(=O)NOCCO)cc21 [Selumetinib]; details: max 10 µM
How it was run: as §1

SRA737 = compound: N#Cc1cnc(Nc2cc(NC[C@H]3CNCCO3)c(C(F)(F)F)cn2)cn1 [SRA737]; details: max 10 µM
How it was run: as §1

MK-2206 = compound: NC1(c2ccc(-c3nc4ccn5c(=O)[nH]nc5c4cc3-c3ccccc3)cc2)CCC1 [MK-2206]; details: max 10 µM
How it was run: as §1

Gemcitabine = compound: Nc1ccn([C@@H]2O[C@H](CO)[C@@H](O)C2(F)F)c(=O)n1 [Gemcitabine]; details: max 0.3 µM
How it was run: as §1

[1] = compound: O=C(Nc1ccc2[nH]nc(-c3ccncc3)c2c1)[C@@H]1CCN(CC(=O)N2CCN(c3ccc(-c4ncccn4)cc3)CC2)C1; details: max 5 µM
How it was run: as §1

Olaparib = compound: O=C(c1cc(Cc2n[nH]c(=O)c3ccccc23)ccc1F)N1CCN(C(=O)C2CC2)CC1 [Olaparib]; details: max 10 µM
How it was run: as §1

5-Fluorouracil = compound: O=c1[nH]cc(F)c(=O)[nH]1 [5-Fluorouracil]; details: max 20 µM
How it was run: as §1

Capivasertib = compound: C1CN(CCC1(C(=O)N[C@@H](CCO)C2=CC=C(C=C2)Cl)N)C3=NC=NC4=C3C=CN4 [Capivasertib]; details: max 10 µM
How it was run: as §1

Cell Line	IC50, cell viability 72 h (Carboplatin) [nM]	IC50, cell viability 72 h (AZD5363) [nM]	IC50, cell viability 72 h (AZD1775) [nM]	IC50, cell viability 72 h (Trametinib) [nM]	IC50, cell viability 72 h (Paclitaxel) [nM]	IC50, cell viability 72 h (Palbociclib) [nM]	IC50, cell viability 72 h (AZD1390) [nM]	IC50, cell viability 72 h (Venetoclax) [nM]	IC50, cell viability 72 h (Dasatinib) [nM]	IC50, cell viability 72 h (SG3199) [nM]	IC50, cell viability 72 h (AZD2811) [nM]	IC50, cell viability 72 h (SN-38) [nM]	IC50, cell viability 72 h (AZD0156) [nM]	IC50, cell viability 72 h (AZD4320) [nM]	IC50, cell viability 72 h (Alisertib) [nM]	IC50, cell viability 72 h (Etoposide) [nM]	IC50, cell viability 72 h (Gefitinib) [nM]	IC50, cell viability 72 h (Prexasertib) [nM]	IC50, cell viability 72 h (Doxorubicin) [nM]	IC50, cell viability 72 h (AZD5153) [nM]	IC50, cell viability 72 h (Lapatinib) [nM]	IC50, cell viability 72 h (AZD8186; max 10 µM) [nM]	IC50, cell viability 72 h (Crizotinib) [nM]	IC50, cell viability 72 h (Savolitinib) [nM]	IC50, cell viability 72 h (AZD6738) [nM]	IC50, cell viability 72 h (AZD5991) [nM]	IC50, cell viability 72 h (AZD7648) [nM]	IC50, cell viability 72 h (Taselisib) [nM]	IC50, cell viability 72 h (Selumetinib) [nM]	IC50, cell viability 72 h (SRA737) [nM]	IC50, cell viability 72 h (MK-2206) [nM]	IC50, cell viability 72 h (Gemcitabine) [nM]	IC50, cell viability 72 h [1] [nM]	IC50, cell viability 72 h (Olaparib) [nM]	IC50, cell viability 72 h (5-Fluorouracil) [nM]	IC50, cell viability 72 h (Capivasertib) [nM]	IC50, cell viability 72 h (AZD8186; max 3 µM) [nM]
COR-L95 (Small Cell Lung Carcinoma)	> 10000	> 10000	> 3000	> 1000	> 3000	> 10000	> 300	392	> 2000	> 1	> 1000	14.9	> 3000	7.32	> 10000	> 10000	> 10000	123	150	> 1000	> 10000	> 10000	> 10000	> 1000	> 10000	> 1000	> 10000	> 10000	> 10000	> 10000	> 10000	> 300	> 5000	> 10000	> 20000	–	–
KM-H2 (Hodgkin's Lymphoma)	–	–	615	> 1000	–	> 10000	> 300	> 1000	> 2000	> 1	> 1000	48.8	> 3000	> 1000	> 10000	–	> 10000	29.1	534	> 1000	> 10000	–	> 10000	> 1000	4620	> 1000	> 10000	> 10000	> 10000	–	> 10000	–	–	> 10000	–	> 10000	> 3000
NCI-H211 (Small Cell Lung Carcinoma)	> 10000	9900	628	> 1000	< 3	6130	> 300	113	> 2000	–	19.5	2.31	> 3000	23.3	–	342	> 10000	–	–	30.2	8540	> 10000	1920	> 1000	5990	307	> 10000	> 10000	> 10000	> 10000	> 10000	8.72	> 5000	3580	> 20000	–	–
NCI-H1781 (Lung Adenocarcinoma)	–	–	839	> 1000	–	> 10000	> 300	> 1000	> 2000	> 1	583	5.06	> 3000	> 1000	1770	–	5370	709	107	> 1000	8920	–	> 10000	> 1000	> 10000	> 1000	> 10000	2110	> 10000	–	–	–	–	> 10000	–	7070	> 3000
NCI-H1793 (Lung Adenocarcinoma)	–	–	> 3000	> 1000	–	> 10000	> 300	> 1000	1100	> 1	> 1000	> 300	> 3000	> 1000	> 10000	–	> 10000	938	> 1000	> 1000	> 10000	–	> 10000	> 1000	> 10000	> 1000	> 10000	> 10000	> 10000	–	–	–	–	> 10000	–	> 10000	> 3000
NCI-H2369 (Mesothelioma)	–	–	> 3000	> 1000	–	> 10000	> 300	> 1000	> 2000	> 1	> 1000	> 300	> 3000	> 1000	> 10000	–	> 10000	> 1000	> 1000	> 1000	> 10000	–	> 10000	> 1000	> 10000	> 1000	> 10000	> 10000	> 10000	–	–	–	–	> 10000	–	> 10000	> 3000
